Columns and labels:
[1] = Direct intraperitoneal administration of carboplatin to mice; assay type: in vivo, mouse; conditions: same amount of carboplatin as contained in the cotton-like carrier
Method: On the other hand, the mice to which PBS was administered lived three weeks or more after administration, and were therefore euthanized in the fourth week after administration.

[2] = LD50 of carboplatin intraperitoneally administered to mice; assay type: in vivo; conditions: mouse having a body weight of 30 g
[3] = intraperitoneally administered to mice; cited from earlier work

SMILES: N.N.O=C([O-])C1(C(=O)[O-])CCC1.[Pt+2] [carboplatin, cis-Diamine(1,1-cyclobutanedicarboxylato)platinum (II)]
- survival after direct intraperitoneal administration ([1]; healthy mice): all the mice died within several days
- findings at dissection after direct intraperitoneal administration [1]: The intestines were necrosed and became dysfunctional
- LD50 per mouse [2]: 4.5 mg
- LD50 (50% lethal dose) [3]: 150 mg/kg

Source: patent US20180021485A1, “METHOD FOR MANUFACTURING DRUG-CONTAINING BIODEGRADABLE FIBER MATERIAL BY ELECTROSPINNING” (ORTHOREBIRTH CO., LTD., priority 2015, published 2018)
